Data on 10 molecules can be found in patent US20240376094A2, “SELECTIVE BCL-XL PROTAC COMPOUNDS AND METHODS OF USE” (Les Laboratoires Servier, priority 2021, published 2024).

In one assay the test system is MOLT-4 cells. Kind of assay: MOLT-4 cell viability, CTG assay. The assay is classed as cell-based. The settings on record: Homo sapiens, MOLT-4, 48 h. An excerpt: The MTT colorimetric assay is based on the mitochondrial reduction of tetrazolium salt by living cells. The viable cell number is proportional to the production of formazan salts, which can be read spectrophotometrically at 540 nm. The CTG luminescent assay (CellTiter GLO, Promega) is based on a reagent which lyses cells and measures total adenosine triphosphate (ATP) content. The viable cell number is proportional to the production of ATP.
MOLT-4 cells were purchased from ATCC and cultivated in RPMI 1640 supplemented with 10% heat inactivated fetal bovine serum, penicillin (100 IU/mi), streptomycin (100 μg/ml) and L-glutamine (2 mM). Cells were cultured at 37° C. in a humidified atmosphere containing 5% […].
For CTG assay, cells were seeded in 384 microwell plates (40 μL per well) and exposed to the compounds for 48 h (11-point serial dilution with 5-fold factor, triplicates). At the end of incubation time, 40 μL of CTG solution were added per well. Wells were mixed thoroughly, and plates were incubated at room temperature for 10 minutes to stabilize luminescent signals prior to reading using a luminescence reader (PHERAStar FSX Reader, BMG Labtech).
IC50, were calculated using standard four-parametric curve fitting. IC50 is defined as the compound concentration at which the MTT or CTG signal is reduced to 50% of that measured for the control. Results shown in Table 14 represent the mean of at least 2 independent experiments.

A further assay has as its target T1, Bcl-xL (Homo sapiens, UniProt Q07817).
T1 construct: Measured levels of Bcl-xL protein of HCT116 cells treated with the tested compounds; host or cells: HCT116
Kind of assay: HCT116 Bcl-xL degradation, capillary-based immunoassay (WES). The assay is classed as cell-based. The settings on record: HCT116, 24 h, 9-point serial dilution. Here is the method:
HCT116 cells were purchased from ATCC and cultivated in RPMI 1640 supplemented with 10% heat inactivated fetal bovine serum, penicillin (100 IU/mi), streptomycin (100 μg/ml) and L-glutamine (2 mM). Cells were cultured at 37° C. in a humidified atmosphere containing 5% CO2. Cells were seeded in 96 microwell plates, 24 h later cells were treated with compounds (2-point 10/100 nM and/or 9-point serial dilution to determine DC50; quadruplicates) during 24 h and harvested in lysis buffer containing 10 mM Hepes (pH 7.5), 150 mM KCl, 5 mM MgCl2, 1 mM EDTA, 0.4% TritonX100, protease and phosphatase inhibitors cocktails (Calbiochem).
Protein concentration in the supernatants was determined using the Pierce BCA protein assay kit (Thermo Fisher Scientific). Lysates (1.5 μg/μL) were analyzed using an automated capillary electrophoresis WES system with 2-40 kDa Wes Separation Module (25 capillary cartridges, Proteinsimple), in accordance with the manufacturer's protocols. Antibodies against the following proteins were used: Bcl-xL (#2764, Cell Signaling Technology, 1:50) and cofilin (#5175, Cell Signaling Technology, 1:1000). Signals were detected with an HRP-conjugated secondary anti-rabbit antibody (#042-206, Proteinsimple) and were quantified using Compass software (version 4.0, Proteinsimple).
Bcl-xL level was calculated by normalizing Bcl-xL values to cofilin and expressed as a percentage of the normalized value of the untreated cells. DC50 were calculated using standard four-parametric curve fitting. DC50 is defined as the compound concentration at which Bcl-xL is reduced to 50% of that measured for the control. Measured levels of Bcl-xL protein of HCT116 cells treated with the tested compounds at 2-point 10 nM/100 nM and/or 9-point for DC50 determination are shown in Table 15.

Each structure is given as a SMILES string. Bounds are passed on as bounds.

T1 sequence (Q07817 whole entry): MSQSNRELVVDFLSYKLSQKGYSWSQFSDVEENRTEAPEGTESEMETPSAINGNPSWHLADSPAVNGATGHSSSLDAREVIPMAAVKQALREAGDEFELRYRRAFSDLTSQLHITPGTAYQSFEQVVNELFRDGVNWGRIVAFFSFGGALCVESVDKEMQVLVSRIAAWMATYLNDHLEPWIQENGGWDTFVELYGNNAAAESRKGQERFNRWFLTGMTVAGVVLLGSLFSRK

In the assay on MOLT-4 cells, `CN[C@@H](C)C(=O)N[C@H](C(=O)N1CCC[C@H]1c1nc(C(=O)c2cccc(OCCCCCCCCN(C)CCOC34CC5(C)CC(C)(CC(Cn6ncc(-c7ccc(N8CCCc9c8nnc(Nc8nc%10ccccc%10s8)c9C)nc7C(=O)O)c6C)(C5)C3)C4)c2)cs1)C1CCCCC1` [Example 97, 6-[3-(1,3-benzothiazol-2-ylamino)-4-methyl-6,7-dihydro-5H-pyrido[2,3-c]pyridazin-8-yl]-3-[1-[[3-[2-[8-[3-[2-[(2S)-1-[(2S)-2-cyclohexyl-2-[[(2S)-2-(methylamino)propanoyl]amino]acetyl]pyrrolidin-2-yl]thiazole-4-carbonyl]phenoxy]octyl-methyl-amino]ethoxy]-5,7-dimethyl-1-adamantyl]methyl]-5-methyl-pyrazol-4-yl]pyridine-2-carboxylic acid] showed an IC50 of 3.76 nM. Moreover, the DC50 at Bcl-xL came out at 0.356 nM.
Consider `CN[C@@H](C)C(=O)N[C@H](C(=O)N1CCC[C@H]1c1nc(C(=O)c2cccc(OCCN(C)CCOC34CC5(C)CC(C)(CC(Cn6ncc(-c7ccc(N8CCCc9c8nnc(Nc8nc%10ccccc%10s8)c9C)nc7C(=O)O)c6C)(C5)C3)C4)c2)cs1)C1CCCCC1` [Example 101, 6-[3-(1,3-benzothiazol-2-ylamino)-4-methyl-6,7-dihydro-5H-pyrido[2,3-c]pyridazin-8-yl]-3-[1-[[3-[2-[2-[3-[2-[(2S)-1-[(2S)-2-cyclohexyl-2-[[(2S)-2-(methylamino)propanoyl]amino]acetyl]pyrrolidin-2-yl]thiazole-4-carbonyl]phenoxy]ethyl-methyl-amino]ethoxy]-5,7-dimethyl-1-adamantyl]methyl]-5-methyl-pyrazol-4-yl]pyridine-2-carboxylic acid], for which inhibition in the assay on MOLT-4 cells was half-maximal at 7.68 nM (IC50). Besides, the DC50 at Bcl-xL was found to be 0.612 nM.
Taken in the same sequence, the figures for `Cc1c(Nc2nc3ccccc3s2)nnc2c1CCCN2c1ccc(-c2cnn(CC34CC5(C)CC(C)(C3)CC(OCCN(C)CCCCCCCCC(=O)N3CCC(c6ccc7c(c6)CN(C6CCC(=O)NC6=O)C7=O)CC3)(C5)C4)c2C)c(C(=O)O)n1` (centres unmarked) [Example 71, 6-[3-(1,3-benzothiazol-2-ylamino)-4-methyl-6,7-dihydro-5H-pyrido[2,3-c]pyridazin-8-yl]-3-[1-[[3-[2-[[9-[4-[2-(2,6-dioxo-3-piperidyl)-1-oxo-isoindolin-5-yl]-1-piperidyl]-9-oxo-nonyl]-methyl-amino]ethoxy]-5,7-dimethyl-1-adamantyl]methyl]-5-methyl-pyrazol-4-yl]pyridine-2-carboxylic acid] were 10.2 nM and more than 316 nM.
Taken in the same sequence, the figures for `Cc1cc(N(CCCCN(C)C(=O)CCCCCCCCCCCNc2cccc3c2C(=O)N(C2CCC(=O)NC2=O)C3=O)c2ccc(-c3cnn(CC45CC6(C)CC(C)(C4)CC(OCCN(C)C)(C6)C5)c3C)c(C(=O)O)n2)nnc1Nc1nc2ccccc2s1` (centres unmarked) [Example 93, 6-[[6-(1,3-benzothiazol-2-ylamino)-5-methyl-pyridazin-3-yl]-[4-[12-[[2-(2,6-dioxo-3-piperidyl)-1,3-dioxo-isoindolin-4-yl]amino]dodecanoyl-methyl-amino]butyl]amino]-3-[1-[[3-[2-(dimethylamino)ethoxy]-5,7-dimethyl-1-adamantyl]methyl]-5-methyl-pyrazol-4-yl]pyridine-2-carboxylic acid] were 19.6 nM and 0.951 nM.
Regarding `CN[C@@H](C)C(=O)N[C@H](C(=O)N1CCC[C@H]1c1nc(C(=O)c2cccc(OCCCCCCN(C)CCOC34CC5(C)CC(C)(CC(Cn6ncc(-c7ccc(N8CCCc9c8nnc(Nc8nc%10ccccc%10s8)c9C)nc7C(=O)O)c6C)(C5)C3)C4)c2)cs1)C1CCCCC1` [Example 102, 6-[3-(1,3-benzothiazol-2-ylamino)-4-methyl-6,7-dihydro-5H-pyrido[2,3-c]pyridazin-8-yl]-3-[1-[[3-[2-[6-[3-[2-[(2S)-1-[(2S)-2-cyclohexyl-2-[[(2S)-2-(methylamino)propanoyl]amino]acetyl]pyrrolidin-2-yl]thiazole-4-carbonyl]phenoxy]hexyl-methyl-amino]ethoxy]-5,7-dimethyl-1-adamantyl]methyl]-5-methyl-pyrazol-4-yl]pyridine-2-carboxylic acid], the IC50 in the assay on MOLT-4 cells turned out to be 4.07 nM. Besides, at Bcl-xL, the DC50 came to 0.448 nM.
Regarding `Cc1cc(N(CCCCN(C)C(=O)CCCCCCCCCCNc2cccc3c2C(=O)N(C2CCC(=O)NC2=O)C3=O)c2ccc(-c3cnn(CC45CC6(C)CC(C)(C4)CC(OCCN(C)C)(C6)C5)c3C)c(C(=O)O)n2)nnc1Nc1nc2ccccc2s1` (centres unmarked) [Example 90, 6-[[6-(1,3-benzothiazol-2-ylamino)-5-methyl-pyridazin-3-yl]-[4-[11-[[2-(2,6-dioxo-3-piperidyl)-1,3-dioxo-isoindolin-4-yl]amino]undecanoyl-methyl-amino]butyl]amino]-3-[1-[[3-[2-(dimethylamino)ethoxy]-5,7-dimethyl-1-adamantyl]methyl]-5-methyl-pyrazol-4-yl]pyridine-2-carboxylic acid], it took 16.8 nM to reach half-maximal inhibition in the assay with MOLT-4 cells (IC50). For the same molecule, it took 1.33 nM to reach half-maximal degradation on Bcl-xL (DC50).
In the same order, the values of `Cc1c(Nc2nc3ccccc3s2)nnc2c1CCCN2c1nc(C(=O)O)c(CCCOc2ccc(C#CCN3CCN(C(=O)CCCC(=O)NCCOCCNC(=O)COc4cccc5c4C(=O)N(C4CCC(=O)NC4=O)C5=O)CC3)cc2F)s1` (centres unmarked) [Example 174, 2-[3-(1,3-benzothiazol-2-ylamino)-4-methyl-6,7-dihydro-5H-pyrido[2,3-c]pyridazin-8-yl]-5-[3-[4-[3-[4-[5-[2-[2-[[2-[2-(2,6-dioxo-3-piperidyl)-1,3-dioxo-isoindolin-4-yl]oxyacetyl]amino]ethoxy]ethylamino]-5-oxo-pentanoyl]piperazin-1-yl]prop-1-ynyl]-2-fluoro-phenoxy]propyl]thiazole-4-carboxylic acid] are 26 nM and more than 316 nM.
Take `Cc1c(Nc2nc3ccccc3s2)nnc2c1CCCN2c1ccc(-c2cnn(CC34CC5(C)CC(C)(C3)CC(OCCN(C)CCCCCCOc3cccc6c3C(=O)N(C3CCC(=O)NC3=O)C6=O)(C5)C4)c2C)c(C(=O)O)n1` (centres unmarked) [Example 141, 6-[3-(1,3-benzothiazol-2-ylamino)-4-methyl-6,7-dihydro-5H-pyrido[2,3-c]pyridazin-8-yl]-3-[1-[[3-[2-[6-[2-(2,6-dioxo-3-piperidyl)-1,3-dioxo-isoindolin-4-yl]oxyhexyl-methyl-amino]ethoxy]-5,7-dimethyl-1-adamantyl]methyl]-5-methyl-pyrazol-4-yl]pyridine-2-carboxylic acid]: in the assay on MOLT-4 cells, the IC50 is 10.4 nM. At Bcl-xL, the DC50 was more than 316 nM.
Taken in the same sequence, the figures for `Cc1c(Nc2nc3ccccc3s2)nnc2c1CCCN2c1ccc(-c2cnn(CC34CC5(C)CC(C)(C3)CC(OCCN(C)CCCCCCCCCCCCCOc3ccc6c(c3)C(=O)N(C3CCC(=O)NC3=O)C6=O)(C5)C4)c2C)c(C(=O)O)n1` (centres unmarked) [Example 115, 6-[3-(1,3-benzothiazol-2-ylamino)-4-methyl-6,7-dihydro-5H-pyrido[2,3-c]pyridazin-8-yl]-3-[1-[[3-[2-[13-[2-(2,6-dioxo-3-piperidyl)-1,3-dioxo-isoindolin-5-yl]oxytridecyl-methyl-amino]ethoxy]-5,7-dimethyl-1-adamantyl]methyl]-5-methyl-pyrazol-4-yl]pyridine-2-carboxylic acid] were 3.93 nM and 0.266 nM.
In turn, `Cc1c(Nc2nc3ccccc3s2)nnc2c1CCCN2c1ccc(-c2cnn(CC34CC5(C)CC(C)(C3)CC(OCCN(C)CCCCCCCCCCCCC(=O)N3CCC(c6ccc7c(c6)CN(C6CCC(=O)NC6=O)C7=O)CC3)(C5)C4)c2C)c(C(=O)O)n1` (centres unmarked) [Example 78, 6-[3-(1,3-benzothiazol-2-ylamino)-4-methyl-6,7-dihydro-5H-pyrido[2,3-c]pyridazin-8-yl]-3-[1-[[3-[2-[[13-[4-[2-(2,6-dioxo-3-piperidyl)-1-oxo-isoindolin-5-yl]-1-piperidyl]-13-oxo-tridecyl]-methyl-amino]ethoxy]-5,7-dimethyl-1-adamantyl]methyl]-5-methyl-pyrazol-4-yl]pyridine-2-carboxylic acid] registered an IC50 with MOLT-4 cells of 4.42 nM. Also, half-maximal degradation at Bcl-xL (DC50) was put at 0.121 nM.
